From patent publication US10344019B2 (priority 2010, dated 2019)
Like-named read-outs stand apart in the source and are kept apart here.

Columns and labels:
Type in all cases: cell-based
[1] = system: HCV 1a RLuc cells (dicistronic genotype 1a H77 replicon, RLuc reporter); test: microbe, parasite or virus in culture; settings: read-out: 1a
Procedure, shortened: (§1)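 Renilla luciferase HCV replicon cells: dicistronic 1b Con1, 1a H77 or 2a JFH-1 replicons, or a JFH-1 chimera carrying J6 NS5A (M31 present). Compound in DMSO serial dilutions, 72 h incubation, then lysis and luciferase read. EC50 by non-linear regression.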

[2] = system: HCV 1b RLuc cells (dicistronic genotype 1b Con1 replicon, RLuc reporter); test: microbe, parasite or virus in culture
Procedure, shortened: as §1

[3] = system: HCV 2a JFH-1 Rluc cells (dicistronic genotype 2a JFH-1 replicon, RLuc reporter); test: microbe, parasite or virus in culture; settings: genotype 2a JFH-1 replicon, read-out: 2a JFH
Procedure, shortened: as §1

[4] = system: HCV 2b Rluc cells (NS5A chimeric genotype 2a JFH-1 replicon with genotype 2b MD2b-1 NS5A gene, M31 present); test: microbe, parasite or virus in culture; settings: Hepatitis C virus, read-out: 2b
Procedure, shortened: (§2)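 Replicon cells stably carrying the listed RLuc-encoding dicistronic replicons were seeded and treated with DMSO serial dilutions of compound (10 mM stocks) diluted into culture medium. After 72 h, cells were lysed and Renilla luciferase activity measured. EC50 was derived by non-linear regression.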

[5] = system: HCV 3a RLuc cells (NS5A chimeric genotype 1b Con1 replicon with consensus genotype 3a NS5A gene); test: microbe, parasite or virus in culture
Procedure, shortened: as §2

[6] = system: HCV 4a Rluc cells (NS5A chimeric genotype 1b Con1 replicon with genotype 4a NS5A gene); test: microbe, parasite or virus in culture; settings: Hepatitis C virus, read-out: 4a
Procedure, shortened: as §2

[7] = system: HCV 2a Rluc cells (NS5A chimeric genotype 2a JFH-1 replicon with genotype 2a J6 strain NS5A gene, M31 present); test: HCV replicon reporter assay, genotype 2a J6 (M31 present); settings: Hepatitis C virus, read-out: 2a J6
Procedure, shortened: as §1

[8] = Hepatitis C virus, 72 h, Table 1, genotype 1a H77 replicon, 72 hours
[9] = Hepatitis C virus, 72 h, read-out: 1b (nM)
[10] = Hepatitis C virus, 72 h, Table 1, 72 hours
[11] = Hepatitis C virus, read-out: 3a, Table 1, genotype 3a NS5A chimeric replicon
[12] = Hepatitis C virus, genotype 1a H77 replicon, RLuc reporter
[13] = Hepatitis C virus, read-out: 1b (nM)
[14] = Hepatitis C virus, RLuc reporter
[15] = Hepatitis C virus, read-out: 3a, genotype 3a NS5A chimeric 1b Con1 replicon
[16] = Hepatitis C virus, genotype 1a replicon
[17] = Hepatitis C virus, read-out: 3a, genotype 3a replicon

Row | Compound | EC50 [4] [nM] | EC50 [6] [nM] | EC50 [7] [nM] | EC50 [1, 12] [nM] | EC50 [2, 13] [nM] | EC50 [3, 14] [nM] | EC50 [5, 15] [nM] | other results
1 | COC(=O)N[C@H](C(=O)N1CCC[C@H]1c1ncc(-c2ccc3c4c(ccc3c2)-c2ccc(-c3cnc([C@@H]5CCCN5C(=O)[C@H](NC(=O)OC)c5ccccc5)[nH]3)cc2CO4)[nH]1)[C@@H](C)OC [Example 16] | 1 to 44 | 0.001 to 0.99 | 1 to 44 |  |  |  |  | EC50 [1, 8]: 0.001 to 0.999 nM; EC50 [2, 9]: 0.011 nM; EC50 [3, 10]: 0.001 to 0.999 nM; EC50 [5, 11]: 0.001 to 0.99 nM
2 | COC(=O)N[C@H](C(=O)N1CCC[C@H]1c1ncc(-c2ccc3c4ccc(-c5cnc([C@@H]6CCCN6C(=O)[C@@H](NC(=O)OC)C(C)C)[nH]5)cc4c4ccccc4c3c2)[nH]1)C(C)C [Example 22] | > 44 | 0.001 to 0.99 | > 44 |  |  |  |  | EC50 [1, 8]: 0.001 to 0.999 nM; EC50 [2, 9]: 0.005 nM; EC50 [3, 10]: 0.001 to 0.999 nM; EC50 [5, 11]: 0.001 to 0.99 nM
3 | COC(=O)N[C@H](C(=O)N1CCC[C@H]1c1ncc(-c2cc3c4c(c2)C(=O)c2cc(-c5cnc([C@@H]6CCCN6C(=O)[C@@H](NC(=O)OC)C(C)C)[nH]5)cc(c2-4)OC3)[nH]1)C(C)C [Example 24] | > 44 | 0.001 to 0.99 | > 44 |  |  |  |  | EC50 [1, 8]: 0.001 to 0.999 nM; EC50 [2, 9]: 0.013 nM; EC50 [3, 10]: 0.001 to 0.999 nM; EC50 [5, 11]: 0.001 to 0.99 nM
4 | COC(=O)N[C@H](C(=O)N1CCC[C@H]1c1ncc(-c2ccc3cc(-c4ccc(-c5cnc([C@@H]6CCCN6C(=O)[C@H](NC(=O)OC)c6ccccc6)[nH]5)cc4)ccc3c2)[nH]1)C(C)C [Example 26] | 1 to 44 | 0.001 to 0.99 | 1 to 44 |  |  |  |  | EC50 ([1]; Table 2, genotype 1a H77 replicon, 72 hours): 0.001 to 0.999 nM; EC50 ([2]; read-out: 1b): 0.012 nM; EC50 ([3]; Table 2, 72 hours): 0.001 to 0.999 nM; EC50 ([5]; read-out: 3a, Table 2, genotype 3a NS5A chimeric replicon): 0.001 to 0.99 nM
5 | COC(=O)N[C@H](C(=O)N1CCC[C@H]1c1nc2ccc3cc(-c4ccc5c(ccc6nc([C@@H]7[C@H]8CC[C@H](C8)N7C(=O)[C@@H](NC(=O)OC)C7CCOCC7)[nH]c65)c4)ccc3c2[nH]1)C(C)C [Example 95] | 1 to 44 | 0.001 to 0.99 | 0.001 to 0.999 |  |  |  |  | EC50 ([1]; Hepatitis C virus, 72 h, Table 2, genotype 1a H77 replicon, 72 hours): 0.001 to 0.999 nM; EC50 [2, 9]: 0.028 nM; EC50 ([3]; Hepatitis C virus, 72 h, Table 2, 72 hours): 0.001 to 0.999 nM; EC50 ([5]; Hepatitis C virus, read-out: 3a, Table 2, genotype 3a NS5A chimeric replicon): 0.001 to 0.99 nM
6 | COC(=O)N[C@H](C(=O)N1CCC[C@H]1c1ncc(-c2ccc3cc(-c4ccc5c(c4)CCc4nc([C@@H]6CCCN6C(=O)[C@@H](NC(=O)OC)C(C)C)[nH]c4-5)ccc3c2)[nH]1)C(C)C [Example 114] | > 44 | 0.001 to 0.99 | > 44 | 0.001 to 0.999 | 0.011 | 1 to 44 | 1 to 4.99 | 
7 | COC(=O)N[C@@H](C(=O)N1C[C@@H](OC)C[C@H]1c1ncc(-c2ccc(-c3ccc4cc(-c5cnc([C@@H]6CCCN6C(=O)[C@H](C(C)C)N(C)C(=O)OC)[nH]5)ccc4c3)cc2)[nH]1)c1ccccc1 [Example 122] | > 44 | 0.001 to 0.99 | > 44 | 0.001 to 0.999 | 0.009 | 0.001 to 0.999 | 0.001 to 0.99 | 
8 | COC(=O)N[C@H](C(=O)N1C[C@@H](OC)C[C@H]1c1ncc(-c2ccc(-c3ccc4cc(-c5cnc([C@@H]6CCCN6C(=O)[C@H](NC(=O)OC)c6ccccc6)[nH]5)ccc4c3)cc2)[nH]1)C(C)C [Example 123] | > 44 | 0.001 to 0.99 | > 44 | 0.001 to 0.999 | 0.014 | 0.001 to 0.999 | 0.001 to 0.99 | 
9 | COC(=O)N[C@H](C(=O)N1CCC[C@H]1c1ncc(-c2ccc3cc(-c4ccc(-c5cnc([C@@H]6CCCN6C(=O)[C@H](NC(=O)OC)c6ccccc6)[nH]5)cc4)ccc3c2)[nH]1)[C@@H](C)OC(C)F (some centres unmarked) [Example 128] | > 44 | 0.001 to 0.99 | > 44 | 0.001 to 0.999 | 0.005 | 0.001 to 0.999 | 0.001 to 0.99 | 
10 | COC(=O)N[C@H](C(=O)N1CCC[C@H]1c1ncc(-c2ccc3cc(-c4ccc(-c5cnc([C@@H]6C[C@H](F)CN6C(=O)[C@H](NC(=O)OC)c6ccccc6)[nH]5)cc4)ccc3c2)[nH]1)C(C)C [Example 129] | > 44 | 0.001 to 0.99 | > 44 | 0.001 to 0.999 | 0.007 | 0.001 to 0.999 | 0.001 to 0.99 | 
11 | CCO[C@H]1C[C@@H](c2ncc(-c3ccc(-c4ccc5cc(-c6cnc([C@@H]7CCCN7C(=O)[C@@H](NC(=O)OC)C(C)C)[nH]6)ccc5c4)cc3)[nH]2)N(C(=O)[C@H](NC(=O)OC)c2ccccc2)C1 [Example 157] | 1 to 44 | 0.001 to 0.99 | > 44 | 0.001 to 0.999 | 0.008 | 0.001 to 0.999 | 1 to 4.99 | 
12 | COC(=O)N[C@H](C(=O)N1CCC[C@H]1c1ncc(-c2ccc3cc(-c4ccc(-c5cnc([C@@H]6C[C@@H](C)CN6C(=O)[C@H](NC(=O)OC)c6ccccc6)[nH]5)cc4)ccc3c2)[nH]1)C(C)C [Example 159] | 1 to 44 | 0.001 to 0.99 | > 44 | 0.001 to 0.999 | 0.006 | 0.001 to 0.999 | 0.001 to 0.99 | 
13 | COC(=O)N[C@H](C(=O)N1CCC[C@H]1c1ncc(-c2ccc3cc(-c4ccc5c(ccc6nc([C@@H]7CCCN7C(=O)[C@H](NC(=O)OC)c7ccccc7)[nH]c65)c4)ccc3c2)[nH]1)C(C)C [Example 169] | > 44 | 0.001 to 0.99 | > 44 | 0.001 to 0.999 | 0.006 | 0.001 to 0.999 | 0.001 to 0.99 | 
14 | COC(=O)N[C@H](C(=O)N1CCC[C@H]1c1ncc(-c2ccc3cc(-c4ccc5c(c4)CCc4nc([C@@H]6CCCN6C(=O)[C@@H](NC(=O)OC)C6CCOCC6)[nH]c4-5)ccc3c2)[nH]1)C(C)C [Example 198] | > 44 | 0.001 to 0.99 | > 44 | 0.001 to 0.999 | 0.018 | 0.001 to 0.999 |  | EC50 ([5]; read-out: 3a, genotype 3a NS5A chimeric 1b Con1 replicon): 1 to 4.99 nM
15 | COC(=O)N[C@H](C(=O)N1CCC[C@H]1c1nc2ccc3cc(-c4ccc5cc(-c6cnc([C@@H]7CCCN7C(=O)[C@H](NC(=O)OC)c7ccccc7)[nH]6)ccc5c4)ccc3c2[nH]1)C(C)C [Example 206] | > 44 | 0.001 to 0.99 | 1 to 44 | 0.001 to 0.999 | 0.005 | 0.001 to 0.999 | 0.001 to 0.99 | 
16 | COC(=O)N[C@H](C(=O)N1CCC[C@H]1c1ncc(-c2ccc3cc(-c4ccc(-c5cnc([C@@H]6CC(F)(F)CN6C(=O)[C@H](NC(=O)OC)c6ccccc6)[nH]5)cc4)ccc3c2)[nH]1)C(C)C [Example 260] | > 44 | 0.001 to 0.99 | > 44 | 0.001 to 0.999 | 0.004 | 0.001 to 0.999 | 0.001 to 0.99 | 
17 | COC(=O)N[C@H](C(=O)N1CCC[C@H]1c1ncc(-c2ccc3c(ccc4cc(-c5cnc([C@@H]6CCCN6C(=O)[C@@H](NC(=O)OC)C(C)C)[nH]5)ccc43)c2)[nH]1)C(C)C [Example 282] | > 44 | 0.001 to 0.99 | > 44 | 0.001 to 0.999 | 0.007 | 0.001 to 0.999 | 0.001 to 0.99 | 
18 | COC(=O)N[C@H](C(=O)N1[C@@H]2CC[C@@H](C2)[C@H]1c1nc2ccc3cc(-c4ccc5c(ccc6nc([C@@H]7CCCN7C(=O)[C@@H](NC(=O)OC)C7CCOCC7)[nH]c65)c4)ccc3c2[nH]1)C(C)C [Example 298] | 1 to 44 | 0.001 to 0.99 | 0.001 to 0.999 |  | 0.077 |  |  | EC50 [1, 16]: 0.001 to 0.999 nM; EC50 ([3]; Hepatitis C virus): 0.001 to 0.999 nM; EC50 [5, 17]: 0.001 to 0.99 nM
19 | COC(=O)N[C@H](C(=O)N1[C@@H]2CC[C@@H](C2)[C@H]1c1nc2ccc3cc(-c4ccc5c(ccc6nc([C@@H]7CCCN7C(=O)[C@H](NC(=O)OC)c7ccccc7)[nH]c65)c4)ccc3c2[nH]1)C(C)C [Example 314] | 0.001 to 0.999 | 0.001 to 0.99 | 0.001 to 0.999 |  | 0.026 |  |  | EC50 [1, 16]: 0.001 to 0.999 nM; EC50 ([3]; Hepatitis C virus): 0.001 to 0.999 nM; EC50 [5, 17]: 0.001 to 0.99 nM
20 | COC(=O)N[C@H](C(=O)N1CC2(C[C@H]1c1nc3ccc4cc(-c5ccc6c(ccc7nc([C@@H]8CCCN8C(=O)[C@H](NC(=O)OC)c8ccccc8)[nH]c76)c5)ccc4c3[nH]1)OCCO2)C(C)C [Example 323] | 0.001 to 0.999 | 0.001 to 0.99 | 0.001 to 0.999 |  | 0.043 |  |  | EC50 [1, 16]: 0.001 to 0.999 nM; EC50 ([3]; Hepatitis C virus): 0.001 to 0.999 nM; EC50 [5, 17]: 0.001 to 0.99 nM
